From BindingDB's records for doi:10.1021/jm8003587 (Tsukuba Research Institute, 2008)

Target: T1, Neuropeptide Y receptor type 5 (Homo sapiens, UniProt Q15761)
T1 sequence (Q15761 whole entry): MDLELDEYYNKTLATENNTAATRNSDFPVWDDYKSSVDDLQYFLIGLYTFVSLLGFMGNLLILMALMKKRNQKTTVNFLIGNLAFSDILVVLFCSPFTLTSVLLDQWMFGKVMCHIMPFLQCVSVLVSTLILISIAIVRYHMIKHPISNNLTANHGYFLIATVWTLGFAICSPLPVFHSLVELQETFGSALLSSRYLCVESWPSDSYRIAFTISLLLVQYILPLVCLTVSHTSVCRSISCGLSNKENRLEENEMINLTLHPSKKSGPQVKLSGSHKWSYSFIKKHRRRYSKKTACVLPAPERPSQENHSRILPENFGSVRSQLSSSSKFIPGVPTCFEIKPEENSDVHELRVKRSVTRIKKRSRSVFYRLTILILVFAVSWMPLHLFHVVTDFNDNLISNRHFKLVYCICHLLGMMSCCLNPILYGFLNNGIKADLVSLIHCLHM
Assay: Displacement of [125I]PYY from human recombinant neuropeptide Y5 receptor expressed in thymidine kinase deficient […] cells

Ki: > 1000 nM
Structure (SMILES): COc1cccc2c1C(C1C(=O)CC(C)(C)CC1=O)C1=C(CC(C)(C)CC1=O)O2 (stereo unspecified) [9-(2-Hydroxy-4,4-dimethyl-6-oxocyclohexyl)-8-methoxy-3,3-dimethyl-2,3,4,9-tetrahydro-1H-xanthen-1-one]
